Test results: patent publication US11273145B2, “Compositions and methods for the treatment of acid-related gastrointestinal disorders containing a dithiolane compound and a gastric acid secretion inhibitor” (priority 2014, dated 2022)

Experiments:
cell monolayer = conditions: Transwell model; cited from earlier work
[1] = biological target: T1, Na+-dependent multivitamin transporter (Homo sapiens, UniProt Q9Y289); conditions: in vitro; cited from earlier work
T1 sequence (Q9Y289 1-635): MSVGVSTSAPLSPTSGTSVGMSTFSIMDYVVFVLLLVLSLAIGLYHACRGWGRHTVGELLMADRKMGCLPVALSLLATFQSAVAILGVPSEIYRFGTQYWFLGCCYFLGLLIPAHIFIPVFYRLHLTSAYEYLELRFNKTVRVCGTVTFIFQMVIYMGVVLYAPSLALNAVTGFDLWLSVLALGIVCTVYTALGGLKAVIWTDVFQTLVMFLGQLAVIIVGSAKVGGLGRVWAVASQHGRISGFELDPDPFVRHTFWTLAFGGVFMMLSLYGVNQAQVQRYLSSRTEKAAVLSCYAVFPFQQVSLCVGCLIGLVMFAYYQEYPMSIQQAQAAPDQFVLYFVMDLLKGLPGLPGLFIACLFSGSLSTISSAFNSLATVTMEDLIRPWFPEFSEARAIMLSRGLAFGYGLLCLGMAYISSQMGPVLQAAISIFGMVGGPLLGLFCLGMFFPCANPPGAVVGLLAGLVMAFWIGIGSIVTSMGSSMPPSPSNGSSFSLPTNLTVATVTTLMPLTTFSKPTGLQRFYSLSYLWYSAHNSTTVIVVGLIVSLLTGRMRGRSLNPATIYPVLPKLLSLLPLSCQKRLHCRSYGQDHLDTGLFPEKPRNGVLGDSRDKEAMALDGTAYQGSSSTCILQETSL

[2] = test system: intracellular glutathione (GSH); conditions: variety of cell types and tissues; cited from earlier work
heartburn and GERD = assay: Conclusions on the use of the combination regimes; type: in vivo, human; conditions: Omeprazole alone
GERD symptoms = assay: Example 1: subject diagnosed with GERD, self-reported relief on omeprazole alone vs omeprazole plus ALA; type: in vivo, human; conditions: scale of 1-10; 40 mg of omeprazole per day
Method: A middle aged subject diagnosed with GERD had been on the proton pump inhibitor omeprazole for approximately three years. The subject reported taking 40 mg of omeprazole per day to control symptoms of GERD. On a scale of 1-10, subject rated the effectiveness of omeprazole at 5. […] In accordance with the present disclosure, they began taking orally 20 mg of omeprazole and 400 mg of ALA on a daily basis. […] Subject rated effectives of regime of the present disclosure a 9 on a scale from 1-10. […] Additional study was undertaken to see to what extent the combination of proton pump inhibitor and ALA of the present disclosure would have on GERD and heartburn symptoms. The person was instructed to orally take 20 mg of omeprazole and 600 mg of ALA daily for 3 months. […] Other important facts were gathered from this 3-month study. The treatment regime is fast acting and generally will halt the symptoms of even the worst scenario of acid reflux in no more than 120 minutes. Continued relief is experienced for a minimum of 24 hours with no further oral intake of the combination regime. The participant reported eating regular foods with no more modified diet schemes. Foods such as pizza, spaghetti, chili, ice cream, pastrami, taco […] like, all once avoided, are now capable of being enjoyed at meal times.

| Compound | transport across cell monolayer (cell monolayer) | transporter substrate status [1] | effect on intracellular glutathione (GSH) [2] | time to elimination of GERD symptoms, on the average (heartburn and GERD) [days] | effectiveness rating by subject (GERD symptoms) |
| --- | --- | --- | --- | --- | --- |
| O=C(O)CCCCC1CCSS1 (stereo not drawn) [ALA, Alpha-Lipoic Acid] | rapidly traverses the cell monolayer in a pH-dependent manner | substrate | markedly increases | – | – |
| COc1ccc2[nH]c([S+]([O-])Cc3ncc(C)c(OC)c3C)nc2c1 (centres unmarked) [omeprazole] | – | – | – | 2 | 5 |
